Holding throughout (assay): growth of human tumour cells (NCI), 48 h
Assay [1] concerns SNB-75 CNS.
Assay [2] has as its system SF-268 CNS.
Assay [3] has as its system SF-539 CNS.
For assay [4], the system named is UACC-257 melanoma.
For assay [5], the system named is NCI-H460 lung.
The subject of assay [6] is SF-295 CNS.
In assay [7] the test system is SK-MEL-2 melanoma.
In assay [8] the test system is BT-549 breast.
For assay [9], the system named is PC-3 prostate.

Results on 15 compounds are retold here after PubChem BioAssay (NCI).

Each structure is given as a SMILES string.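 96-well plates; 48 h exposure; 5 concentrations. Endpoints by linear interpolation between flanking doses. Not reached: highest tested concentration assigned. GI50 is the concentration that inhibits growth by half. At the TGI there is no net growth.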

Take `CC(=O)[O-].O=[N+]([O-])c1ccc([O-])c(C=NCCN=Cc2cc([N+](=O)[O-])ccc2[O-])c1.[Mn+3]`: the GI50 in assay [1], in assay [2], in assay [3], in [4], in assay [5] and in assay [6] was over 100 µM throughout. The GI50 in [7] was over 100 µM. Besides, the TGI in assay [1], in assay [2], in assay [3], in [4], in [5] and in assay [6] was over 100 µM each time. This compound showed a TGI in assay [7] of over 100 µM.

On to `C=C(C[N+](C)(C)C)N/N=C/c1oc(-c2ccc(OC)c(OC)c2)c(-c2ccc(OC)c(OC)c2)c1[N+](=O)[O-]`, for which the TGI in [1] was found to be 78.2 µM; in [2] it was 38.7 µM; in assay [3], 31.6 µM; in assay [4], 46.6 µM; in assay [5] it was 40.2 µM; in assay [6], 39.6 µM. In assay [7], this compound returned a TGI of 31.9 µM.

Consider `COc1ccc(C2NC(=S)NC3=C2COc2ccc(F)cc23)cc1OC` (stereo not given), for which the GI50 is 27.9 µM in [8]; 19 µM in assay [2]; 28.3 µM in [3]; 14.2 µM in assay [4]; 24.1 µM in assay [5]; 20.1 µM in assay [6]. For the same compound, the GI50 is 14.2 µM in assay [9] and 55.4 µM in assay [7]. The TGI in assay [8] was 83.3 µM; in assay [2], over 100 µM; in assay [3] it was 67.4 µM; in assay [4], 45.4 µM; in assay [5], over 100 µM; in assay [6], 70.3 µM. Also, the TGI in assay [9] is 87.9 µM; in [7], over 100 µM.

Regarding `COc1cc2c3c(c1OC)/C(=N/OS(=O)(=O)c1ccc(C)cc1)CC3N(S(=O)(=O)c1ccc(C)cc1)CC2` (stereo not given), the TGI in assay [1], in [2], in assay [3], in assay [4], in assay [5] and in [6] was over 100 µM in each case.

As to `Cc1cc(N(CCC#N)CCC#N)ccc1/C=C/C(=O)Nc1ccccc1Cl`, the TGI in [1], in assay [2], in assay [3], in assay [4], in [5] and in assay [6] was over 100 µM each time. The same compound displayed a TGI in assay [7] of over 100 µM.

On to `C=CCN(N=O)C(=O)ON1C(=O)CCC1=O`, for which the TGI in assay [1], in assay [2], in [3], in assay [4], in assay [5] and in assay [6] was over 100 µM throughout. Further, the TGI in assay [7] is over 100 µM.

As to `COC(=O)C1=C(C(=O)OC)N(C(C)C)[C@H]2C(C(=O)OC)=C(C(=O)OC)N(C(C)C)[C@@H]12`, the TGI in assay [1], in assay [2], in assay [3], in assay [4], in assay [5] and in assay [6] was over 100 µM each time. Further, the TGI in assay [7] is over 100 µM.

Consider `C1=CC=C2NCCSCCNC3=CC=CC=CC3=NCCSCCN=C2C=C1`, for which the TGI in assay [1], in assay [2], in assay [4], in assay [5], in assay [6] and in assay [7] was over 100 µM each time.

With `O=C1Cc2ccccc2CCc2ccccc21`, the TGI in assay [1], in [2], in assay [3], in [4], in assay [5] and in assay [6] was over 100 µM in each case. This compound also displayed a TGI in [7] of over 100 µM.

On to `CC1(C)Oc2ccccc2N2O[C@@H]3C(=O)N(c4ccccc4)C(=O)[C@@H]3C21c1ccccc1` (stereo not given in full), for which the TGI in assay [1] is 35.3 µM; in [2] it was over 100 µM; in assay [3], 31.7 µM; in assay [4] it was 78.7 µM; in [5] it was over 100 µM; in [6] it was 32.2 µM. The TGI in assay [7] was determined as 53.3 µM.

As to `CCCCOP1(=O)C=CC(Cl)=C(C)C1` (stereo not given), the TGI in assay [1] was found to be 49.6 µM; in assay [2] it was 89.2 µM; in [3] it was 36.3 µM; in [5], 80.8 µM; in [6] it was 39.6 µM; in [7] it was 50.8 µM.

With `O=c1ncccn1C1OC(CO)C(O)C1F` (stereo not given), the TGI in assay [1], in assay [2], in [3], in assay [4], in assay [5] and in assay [6] was over 100 µM throughout. The same compound had a TGI in [7] of over 100 µM. Moreover, the GI50 in assay [3] and in [5] was over 100 µM throughout.

With `CCOC(=O)c1cc(C(=O)O)c(=O)n2c1[nH]c1ccccc12`, the TGI in assay [1], in [2], in [3], in assay [4], in [5] and in assay [6] was over 100 µM in each case. This compound also gave a TGI in assay [7] of over 100 µM.

In the case of `CN1C=C(C(N)=O)C2CC(O)[C@@](NC(=O)CS(N)(=O)=O)(C(=O)O)C2C1` (stereo not given in full), the TGI in assay [1] was determined as 7.6 µM; in assay [2] it was 10.3 µM; in assay [3], 4.41 µM; in assay [4] it was 27 µM; in [5], 12.6 µM; in [6] it was 6.97 µM. The compound also returned a TGI in [7] of 8.22 µM.

On to `O=C1[C@H]2ON(c3ccccc3)C(c3cccc([N+](=O)[O-])c3)[C@H]2C(=O)N1c1ccc(Cc2ccc(N3C(=O)[C@@H]4ON(c5ccccc5)C(c5cccc([N+](=O)[O-])c5)[C@@H]4C3=O)cc2)cc1` (stereo not given in full), for which the TGI in assay [1], in assay [2], in assay [3], in [4], in assay [5] and in assay [6] was over 100 µM each time. This compound also had a TGI in assay [7] of over 100 µM.
